Three compounds from ChEMBL document CHEMBL1157303, “Bioactive triterpenoids from Salvia species” (J Nat Prod, 2006) can be followed below.

Structures are written as SMILES.

The subject of one test is Mus musculus. The experiment in a line: Antiinflammatory activity against croton oil-induced ear edema in mouse. Type of test: functional.
Test [1] is described as follows: Inhibition of rat DNA polymerase in presence of bovine serum albumin.
Test [2] in a line: Inhibition of rat DNA polymerase in absence of bovine serum albumin.

In the case of `COc1ccc2c(c1)c(CC(=O)O)c(C)n2C(=O)c1ccc(Cl)cc1` [INDOMETHACIN], the ID50 in the test on Mus musculus was determined as 0.26 µmol.
On to `CC1(C)CC[C@]2(C(=O)O)CC[C@]3(C)C(=CC[C@@H]4[C@@]5(C)CC[C@H](O)C(C)(C)[C@@H]5CC[C@]43C)[C@@H]2C1` [OLEANOLIC_ACID], for which the values for the IC50 in test [1] and in test [2] were 7.5 µM and 3.7 µM, respectively.
In the case of `C[C@H]1[C@H](C)CC[C@]2(C(=O)O)CC[C@]3(C)C(=CC[C@@H]4[C@@]5(C)CC[C@H](O)C(C)(C)[C@@H]5CC[C@]43C)[C@H]12` [URSOLIC ACID], the IC50 (usually the concentration that inhibits the measured activity by half) turned out to be 8.5 µM in test [1] and 4.8 µM in test [2]. In the test on Mus musculus, this compound registered an ID50 of 0.14 µmol.
